Measurements reported in US8012949B2, “Bisphosphonate compounds and methods with enhanced potency for multiple targets including FPPS, GGPPS, and DPPS” (The Board of Trustees of the University of Illinois, priority 2004, dated 2011).
Read-outs that look alike come from different tables or passages of the source.

How the values were obtained:
Type in all cases: cell-based, human
[1] = system: NCI-H460 (lung large cell); assay: NCI-H460 cell growth inhibition (MTT); settings: Homo sapiens, NCI-H460
[2] = system: SF-268 (central nervous system glioblastoma); assay: SF-268 cell growth inhibition (MTT); settings: Homo sapiens, SF-268
[3] = system: MCF-7 (breast adenocarcinoma); assay: MCF-7 cell growth inhibition (MTT), incl. FOH/GGOH rescue; settings: for IC50: Homo sapiens, MCF7

## CCCCCCCCCCOc1cccc(CC(O)(P(=O)(O)O)P(=O)(O)O)c1 [BPH-754]
[1]; Table 1, experimental, read-out: NCI-H460 pIC50 (converted)
  IC50: 20 µM
[1]; read-out: IC50, inhibition of human lung cancer NCIH460
  IC50: 0.672 µM
[2]; Table 1, experimental, read-out: SF-268 pIC50 (converted)
  IC50: 25.1 µM
[2]; read-out: IC50, inhibition of human CNS cancer SF268
  IC50: 0.524 µM
[3]; GGOH 20 μM
  rescue from growth inhibition by geranylgeraniol (GGOH): rescued by GGOH
[3]; Table 1, experimental, read-out: MCF-7 pIC50 (converted)
  IC50: 25.1 µM
[3]; read-out: IC50, inhibition of human breast cancer cell line MCF7
  IC50: 0.401 µM
